# Test results: US20190125735A1, “INHIBITION OF P38 MAPK FOR THE TREATMENT OF CANCER” (Board of Regents, The University of Texas System, priority 2015, published 2019)
# Assays:
# [1] = system: FOXC2; assay: FOXC2 protein levels by immunoblotting in mammary cell lines; format: cell-based, human; conditions: series of cell lines, relative to vehicle, 24 h
# Description: Immortalized human mammary epithelial (HMLE) cells expressing empty vector (pWZL), Snail, Twist, Goosecoid (GSC), or an activated form of TGFβ1, V12H-Ras-transformed HMLE (HMLER) and HMLER-FOXC2 cells were maintained as previously described (Elenbaas et al., 2001) For 4-hydroxy-tamoxifen (4-OHT) treatment, HMLE-Snail-ER or HMLE-Twist-ER cells were exposed to 20 nM 4-OHT for the indicated number of days. MCF7, MDA-MB-231 and SUM159 human breast cancer cells and the 4T1 mouse mammary carcinoma cells were cultured as described. Human non-tumorigenic MCF10A cells were cultured as described (Hollier et al., 2013), and treated with 2.5 ng/ml TGFβ1 for 3 days to elicit EMT.
# Immunoblotting and immunofluorescence (Mani et al., 2008) were performed as previously described. Primary antibodies were as follows: β-actin (Sigma, St Louis, Mo., USA; A3853), mouse anti-human FOXC2 (Dr. Naoyuki Miura, Hamamatsu University School of Medicine, Japan), goat polyclonal anti-FOXC2 (Santa Cruz Biotechnology, Dallas, Tex., USA; sc-21397), p-p38 (Cell Signaling, Danvers, Mass., USA; 4511), p38 (Cell Signaling; 9211), E-cadherin (BD Biosciences, San Jose, Calif., USA; 61081), fibronectin (BD Biosciences; 610077), vimentin (Novus Biologicals, Littleton, Colo., USA; NB200-623), ZEB1 (Novus Biologicals; NBP1-05987), and HA (Covance, Princeton, N.J., USA; MMS-101P).
# [2] = system: FOXC2; assay: FOXC2 transcript levels by qRT-PCR; format: cell-based, human; conditions: treated vs vehicle
# Description: qRT-PCR was performed using SYBR Green (Applied Biosystems, Waltham, Mass., USA) for mRNAs and Taqman (Applied Biosystems) for microRNAs as described previously (Hollier et al., 2013).
# [3] = system: HMLE cells; assay: FOXC2 immunostaining at leading edge of scratched HMLE monolayer; format: cell-based, human; conditions: 9 h post-wound
# Description: FIGS. 13A-13F: FOXC2 expression correlates with p38 activation in cells with mesenchymal and stem cell properties. […] (B) Cell lysates from the indicated cells were analyzed by immunoblotting for p-p38, p38 and FOXC2. β-actin was used as a loading control. […] Cell lysates were analyzed by immunoblotting for FOXC2. β-actin was used as a loading control (D) The indicated cells were transduced with p38 shRNA (shp38) or control shRNA (shControl). Cell lysates were analyzed by immunoblotting for p38 and FOXC2. β-actin was used as a loading control. […] (F) For the wound healing assay, a confluent monolayer culture of epithelial HMLE cells was scratched with a sterile pipette tip. […] Nuclei were counterstained with DAPI. Scale bar, 20 μm.
# [4] = system: HMLE-Snail, HMLE-Twist, MDA-MB-231 and SUM159 cells; assay: FACS CD44high/CD24low of mesenchymal mammary cells; format: cell-based, human; conditions: relative to vehicle-treated cells
# Description: It was next ascertained whether p38 inhibition compromises the maintenance of the established EMT phenotype.
# Quantification of invadopodia (Eckert et al., 2011), scratch/wound-healing assays (Sarkar et al., 2015) fluorescence-activated cell sorting (FACS), and sphere-formation assays (Mani et al., 2008) were conducted as described previously.
# [5] = system: HMLER cells; assay: Sphere formation of HMLER cells expressing FOXC2 variants; format: cell-based, human
# Description: For this, phosphomimetic FOXC2(S367E) and non-phosphorylatable FOXC2(S367A) mutants were generated and their ability to bestow mesenchymal and stem-cell traits relative to wild-type FOXC2 (referred to as FOXC2) was evaluated.
# [6] = system: DU145 cells; assay: FACS CD44/CD24 in DU145 cells; format: cell-based, human; conditions: DU145, 5 μM, 7 days
# Description: Fluorescence-activated cell sorting (FACS) for PSAHi & PSA−/lo cells and CD44Hi & CD24Lo cells was performed as described previously (Hollier et al., 2013) using BD Influx sorter.
# [7] = system: BCR-ABL+ mouse ALL cells seeded on MSCs; assay: Post-screening leukemic cell cluster formation underneath pretreated MSCs; format: cell-based; conditions: imatinib 5 μM with SB203580 20 μM or dexamethasone 50 nM, 4 days + 24 hours
# Text: Phase-contrast images of co-cultured MSCs and ALL cells were obtained using an Axio Observer.Z1 microscope, an AxioCam MR camera, and AxioVision software (Zeiss, Oberkochen, Germany). For screening, a cluster was defined as a group of more than five leukemic cells under the MSCs. The total number of leukemic cell clusters was the average number of clusters from three different fields (10× objective). For post-screening experiments, a cluster was defined as a group of more than 10 leukemic cells under the MSCs. The total number of leukemic cell clusters was the average number of clusters from 10 different fields (10× objective).
smiles,measurement,setting,value
"C[S+]([O-])c1ccc(-c2nc(-c3ccc(F)cc3)c(-c3ccncc3)[nH]2)cc1 (centres unmarked) [SB203580, 4-(4-Fluorophenyl)-2-(4-methylsulfinylphenyl)-5-(4-pyridyl) 1H-imidazole]",FOXC2 protein levels,[1],consistent and striking decrease in FOXC2 protein levels
same,FOXC2 transcript levels,[2],neither SB203580 nor p38 shRNA had a discernible effect on FOXC2 transcript levels
same,Upregulation of FOXC2 at the leading edge of scratch,[3],abrogated the upregulation of FOXC2 at the leading edge
same,Percentage of cells displaying the CD44^high/CD24^low antigenic profile,[4],substantially reduced
same,Sphere-forming capacity,[5]; HMLER-FOXC2(S367E) cells,retained the ability to form spheres even in the presence of SB203580
same,Sphere-forming capacity,[5]; HMLER-FOXC2 cells,reduced
same,CD44^hi/CD24^lo fraction,[6],significant reduction
same,Leukemic cell clusters underneath imatinib-pretreated MSCs,[7],completely prevented leukemic cell cluster formation
